For 9 compounds, CATDS, potency estimated from few doses and CATDSCK2 results are on record in publication PMC11062922 (Nature Chemical Biology, 2023).

The structures appear in SMILES notation. Read-outs that look alike come from different tables or passages of the source.

The target of one assay is T1, CSNK2A1 (CK2) (Homo sapiens, UniProt P68400).
T1 construct: endogenous in cells
Nature of the assay: Kinobeads two-dose competition binding: CK2 (CSNK2A1).

Another assay concerns the target T2, CHECK1 (Homo sapiens, UniProt O14757).
T2 construct: endogenous in cells
T2 sequence (O14757 1-476): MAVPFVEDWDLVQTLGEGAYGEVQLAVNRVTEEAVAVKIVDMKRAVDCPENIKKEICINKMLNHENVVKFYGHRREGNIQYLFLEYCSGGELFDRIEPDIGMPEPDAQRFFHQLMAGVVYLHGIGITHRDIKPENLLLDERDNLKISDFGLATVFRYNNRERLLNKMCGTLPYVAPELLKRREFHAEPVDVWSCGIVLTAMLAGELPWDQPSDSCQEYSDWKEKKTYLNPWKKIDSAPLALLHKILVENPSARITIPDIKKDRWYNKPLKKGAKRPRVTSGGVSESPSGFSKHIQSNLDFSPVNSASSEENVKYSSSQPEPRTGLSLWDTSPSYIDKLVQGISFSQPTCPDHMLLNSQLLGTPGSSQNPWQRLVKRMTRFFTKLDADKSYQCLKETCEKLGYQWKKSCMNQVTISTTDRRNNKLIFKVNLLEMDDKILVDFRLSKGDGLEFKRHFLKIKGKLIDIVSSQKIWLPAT
Nature of the assay: Kinobeads two-dose competition binding: CHECK1. The settings on record: for CATDS: target CHEK1. The text has this:
Briefly, Kinobeads comprise seven broad-spectrum small molecule kinase inhibitors immobilized on Sepharose beads. […]. Compounds of interest are set to compete for target protein binding with Kinobeads in the lysate and the amount of a given protein bound to Kinobeads in the presence of a compound can be quantified relative to a dimethylsulfoxide (DMSO) vehicle control by label-free mass spectrometry. This assay measures the physical interaction of a compound with thousands of endogenous proteins in parallel and, when systematically increasing the concentration of competitor, enables the calculation of an apparent interaction constant ( Kdapp ) for each compound and protein.
Kinobeads pulldown experiments were performed as described previously[13],[14],[17] with minor modification. […] The protein concentration was adjusted to 5 mg ml^−1. Kinase inhibitors were spiked into 0.5 ml of cell lysate at final concentrations of 100 and 1,000 nM (or DMSO, 0.3, 1, 3, 10, 30, 100, 300 and 1,000 nM for full dose experiments). […] Lysates were incubated for 45 min at 4 °C. Subsequently, lysates were incubated with Kinobeads ε (17.5 µl of settled beads) for 30 min at 4 °C. To assess the degree of protein depletion from the lysates by Kinobeads, the flow through of the DMSO control was recovered for a pulldown of pulldown experiment where the lysate was incubated a second time with fresh Kinobeads. Beads were washed in three steps with buffer containing 0.4%, 0.2% and no IGEPAL. Bound proteins were reduced with 50 mM DTT in 8 M Urea, 40 mM Tris-HCl pH 7.4 for 30 min at room temperature. After alkylation with 55 mM chloroacetamide, the urea concentration was reduced to 1–2 M and proteins were digested with trypsin. Acidified peptides were desalted and concentrated using SepPak tC18 µEluation plates (Waters). Samples were frozen, dried by vacuum centrifugation and stored at −20 °C.
Each kinase inhibitor was processed together with all DMSO controls of the same plate. Additionally, each search was supplemented with five high quality DMSO controls for consistent peptide identification and protein grouping. The resultant file (proteinGroups.txt) was used for subsequent filtering, normalization, data visualization and target annotation that was automatically performed by a data processing pipeline built in house that used R (including the ‘drc’ and ‘heatmap’ packages). First, reverse hits, potential contaminants and not quantified proteins in the DMSO control samples were discarded. Protein raw and label-free quantification intensities were normalized to the median DMSO control intensity to obtain relative residual binding intensities for each protein group at every inhibitor concentration and standard deviations of the DMSO control intensity were calculated. IC50 values were estimated based on the following equation IC50=I×100−inhibition/inhibition where [I] is the inhibitor concentration that was used for IC50 calculation and ‘inhibition’ the relative residual binding intensity. […]. Estimated Kdapp values were then calculated by multiplying the estimated IC50 values with a protein-dependent correction factor that was limited to a maximum value of one. The correction factor accounts for the depletion of a target protein from the lysate by Kinobeads. The depletion can be measured by the ratio of the amount of protein captured in two consecutive pulldowns of the same DMSO control lysate. In this study, correction factors were determined in separate experiments using the same lysate mixture and the same bead batch. Correction factors were set to the median of all correction factors. Targets of kinase inhibitors were annotated using the previously published random forest classifier. A training data set was annotated manually. […]

The target of the next assay is T3, ACOX1 (Homo sapiens, UniProt Q15067).
T3 construct: endogenous in cells
T3 sequence (Q15067 1-660): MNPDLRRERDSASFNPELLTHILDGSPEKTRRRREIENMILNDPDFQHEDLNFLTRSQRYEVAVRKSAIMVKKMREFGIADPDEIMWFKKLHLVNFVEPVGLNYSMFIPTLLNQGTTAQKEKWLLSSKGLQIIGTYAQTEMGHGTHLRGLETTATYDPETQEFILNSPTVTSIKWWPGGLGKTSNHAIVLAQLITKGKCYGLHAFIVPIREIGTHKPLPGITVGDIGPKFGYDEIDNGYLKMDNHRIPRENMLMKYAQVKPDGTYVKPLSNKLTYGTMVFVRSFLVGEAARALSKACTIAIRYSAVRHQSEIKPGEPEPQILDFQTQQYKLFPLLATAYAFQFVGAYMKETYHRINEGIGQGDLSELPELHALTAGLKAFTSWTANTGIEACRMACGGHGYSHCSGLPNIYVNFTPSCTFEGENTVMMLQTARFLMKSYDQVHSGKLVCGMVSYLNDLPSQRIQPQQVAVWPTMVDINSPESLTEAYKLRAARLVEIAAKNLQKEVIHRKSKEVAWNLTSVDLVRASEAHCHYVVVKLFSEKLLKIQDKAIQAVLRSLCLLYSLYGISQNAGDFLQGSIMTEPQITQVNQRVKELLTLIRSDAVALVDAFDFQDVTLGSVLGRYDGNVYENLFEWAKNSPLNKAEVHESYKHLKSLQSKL
The assay can be described thus: Kinobeads two-dose competition binding: ACOX1.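 Further: competition of compounds with immobilized broad-spectrum kinase inhibitor beads in cell lysate at 100 and 1,000 nM, 45 min at 4 °C, bead-bound protein quantified by label-free MS versus DMSO.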

The target of the next assay is T4, ABL2 (Homo sapiens, UniProt P42684).
T4 construct: endogenous in cells
T4 sequence (P42684 whole entry): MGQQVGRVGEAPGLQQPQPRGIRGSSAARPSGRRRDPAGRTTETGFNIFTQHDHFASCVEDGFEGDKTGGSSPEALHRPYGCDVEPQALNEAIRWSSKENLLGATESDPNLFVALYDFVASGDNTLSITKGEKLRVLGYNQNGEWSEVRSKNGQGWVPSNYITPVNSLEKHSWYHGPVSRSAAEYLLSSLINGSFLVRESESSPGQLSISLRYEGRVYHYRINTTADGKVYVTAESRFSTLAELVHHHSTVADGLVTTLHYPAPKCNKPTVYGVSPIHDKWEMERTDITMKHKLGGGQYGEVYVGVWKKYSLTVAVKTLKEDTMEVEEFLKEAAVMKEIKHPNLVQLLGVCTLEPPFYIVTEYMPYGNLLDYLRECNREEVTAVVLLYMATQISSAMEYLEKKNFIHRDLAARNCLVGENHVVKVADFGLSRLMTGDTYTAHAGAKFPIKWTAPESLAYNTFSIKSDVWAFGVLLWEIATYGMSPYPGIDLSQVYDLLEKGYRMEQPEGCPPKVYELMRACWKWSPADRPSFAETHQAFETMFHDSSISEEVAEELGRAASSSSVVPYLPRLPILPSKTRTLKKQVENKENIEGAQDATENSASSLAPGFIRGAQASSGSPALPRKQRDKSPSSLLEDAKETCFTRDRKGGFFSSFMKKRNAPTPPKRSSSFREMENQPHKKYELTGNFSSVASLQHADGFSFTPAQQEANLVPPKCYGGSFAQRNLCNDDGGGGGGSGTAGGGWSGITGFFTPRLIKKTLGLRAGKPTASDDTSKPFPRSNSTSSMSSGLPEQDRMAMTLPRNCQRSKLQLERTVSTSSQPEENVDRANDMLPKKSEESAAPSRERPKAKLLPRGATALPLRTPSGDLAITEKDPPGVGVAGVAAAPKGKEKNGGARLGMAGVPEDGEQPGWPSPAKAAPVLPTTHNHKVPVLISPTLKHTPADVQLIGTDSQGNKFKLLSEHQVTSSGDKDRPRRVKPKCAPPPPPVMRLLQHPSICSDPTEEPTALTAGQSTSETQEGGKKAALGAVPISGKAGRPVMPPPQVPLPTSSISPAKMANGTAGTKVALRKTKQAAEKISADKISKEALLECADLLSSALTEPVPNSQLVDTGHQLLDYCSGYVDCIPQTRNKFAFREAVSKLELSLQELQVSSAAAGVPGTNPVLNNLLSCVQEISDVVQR
Nature of the assay: Kinobeads two-dose competition binding: ABL2. The settings on record: sheet CATDS matrix 2; Gene Name ABL2.

The mark [1] stands for this setting: sheet CATDS matrix 2, Gene Name ACOX1.

T1 sequence (P68400 whole entry): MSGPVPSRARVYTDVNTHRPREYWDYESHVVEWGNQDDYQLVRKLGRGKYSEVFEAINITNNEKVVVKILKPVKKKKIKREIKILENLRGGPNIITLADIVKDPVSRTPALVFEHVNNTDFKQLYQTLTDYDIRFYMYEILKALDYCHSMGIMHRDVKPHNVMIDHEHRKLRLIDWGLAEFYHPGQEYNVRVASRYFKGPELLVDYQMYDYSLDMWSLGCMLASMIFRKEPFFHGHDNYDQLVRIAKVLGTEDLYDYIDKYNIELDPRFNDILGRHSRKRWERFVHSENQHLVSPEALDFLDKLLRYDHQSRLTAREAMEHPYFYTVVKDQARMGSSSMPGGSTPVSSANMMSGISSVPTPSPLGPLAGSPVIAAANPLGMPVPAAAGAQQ

For the compound `CCN1CCN(Cc2ccc(Nc3ncc(F)c(-c4cc(F)c5nc(C)n(C(C)C)c5c4)n3)nc2)CC1` [Abemaciclib], the CATDS came out at 0.05816 at CSNK2A1 (CK2) (target CSNK2A1;CSNK2A3); 0 at CHECK1; 0 on ACOX1 (setting [1]); 0 on ACOX1 (target ACOX1); 0 on ABL2.

As for `COc1cc(Nc2ncc3c(C)nc(-c4cc5ccccc5[nH]4)n3n2)cc(OC)c1OC` [GW869516X], at CSNK2A1 (CK2) (Kinobeads two-dose screen (binding), read-out: Kdapp CK2 (CSNK2A1)), the potency estimated from few doses was 78 nM. Further, the CATDSCK2 at CSNK2A1 (CK2) (selectivity score from Kinobeads two-dose data) worked out at 1.

With `CC(C)N1CC(=O)N(C)c2cnc(Nc3cccc(S(=O)(=O)CCN4CCOCC4)c3)nc21` [BI00009348], the CATDS on ACOX1 (setting [1]) and at ABL2 was 0 each time.

For `N#CC1(c2ccc(NC(=O)c3cccnc3NCc3ccncc3)cc2)CCCC1` [Apatinib], the CATDS on CSNK2A1 (CK2) (target CSNK2A1;CSNK2A3), at CHECK1, on ACOX1 (setting [1]), on ACOX1 (target ACOX1) and on ABL2 was 0 in each case.

Consider `C#Cc1cccc(Nc2ncnc3cc(OC)c(OC4CCN(C)CC4)cc23)c1` [BI00007366], for which the CATDS at ACOX1 (setting [1]) and at ABL2 was 0 throughout.

At CHECK1, `CN(C)C/C=C/C(=O)Nc1cc2c(Nc3ccc(F)c(Cl)c3)ncnc2cc1O[C@H]1CCOC1` [Afatinib] had a CATDS of 0.

`C[C@]12O[C@H](C[C@]1(O)CO)n1c3ccccc3c3c4c(c5c6ccccc6n2c5c31)CNC4=O` [Lestaurtinib]: the potency estimated from few doses was 291 nM on CSNK2A1 (CK2) (read-out: Lestaurtinib Drugmatrix value, Gene Name CSNK2A1;CSNK2A3, target CSNK2A1;CSNK2A3, each column = one Lestaurtinib control replicate (batch_R1-R3)) and 98 nM on CHECK1 (read-out: Lestaurtinib Drugmatrix value, Gene Name CHEK1).

With `Nc1ncnc2[nH]c(-c3ccccc3)nc12` [AH5015_KCGS], the CATDS on CSNK2A1 (CK2) (target CSNK2A1;CSNK2A3), on CHECK1, on ACOX1 (setting [1]), at ACOX1 (target ACOX1) and at ABL2 was 0 each time.

Regarding `CCc1cc2c(cc1N1CCC(N3CCOCC3)CC1)C(C)(C)c1[nH]c3cc(C#N)ccc3c1C2=O` [Alectinib], the CATDS on CSNK2A1 (CK2) (target CSNK2A1;CSNK2A3), on CHECK1, on ACOX1 (setting [1]), on ACOX1 (target ACOX1) and on ABL2 was 0 each time.
